Laboratory results from US10179148B2, “Keratolytic composition with anti-allergic anti-inflammatory properties” (priority 2003, dated 2019).

Test system: psoriasis patients
Test: topical testing of cleansing/topical compositions on psoriasis patients
Type: in vivo, human
Settings: in cleansing liquid along with gentle surfactants sodium laureth sulfate and ammonium laureth sulfate; psoriasis effected patients; 5 patients
From the text: Most of the cleansing agents contain sodium chloride and/or ammonium chloride and/or potassium chloride.
This invention is lead by desire for developing a new and innovative treatment, which can be used in the longer periods of time without side effect associated with other products. The Topical Composition given in the example being used for more than 6 months and also tested on other psoriasis patients with encouraging results.
Though the exact mechanism of action of quaternary ammonium compounds, such as ammonium chloride, and vanilla is not fully understood, actual testing on psoriasis patients have shown encouraging results without side effects associated with steroids and other presently available psoriasis topical applications.

Structure (SMILES)	keratolytic properties (removing scales)
Cl.N [ammonium chloride]	showing keratolytic properties by removing scales
[Cl-].[Na+] [sodium chloride]	not having keratolytic properties
